Measurements as given in publication PMC10102849 (Clinical cancer research : an official journal of the …, 2023).

Key:
[1] = tested on: JW23.3 cells; type: cell-based, murine; conditions: 72 hours
[2] = tested on: JH-2-002 cells; type: cell-based, human; conditions: 72 hours
[3] = tested on: MPNST-724 cells; type: cell-based, human; conditions: 3 days
[4] = tested on: JW23.3, JH-2-002, and MPNST-724 cells; assay: IncuCyte proliferation assay, range stated over three MPNST cell lines; type: cell-based; conditions: 72 h, read-out: IC50 for inhibition of cell confluence, range over cell lines

| SMILES | effect on percent cell confluence / proliferation [1] | effect on percent cell confluence / proliferation [2] | effect on proliferation [3] | IC50 [4] [nM] |
| --- | --- | --- | --- | --- |
| O=C(NOC[C@H](O)CO)c1ccc(F)c(F)c1Nc1ccc(I)cc1F [mirdametinib] | dose-dependently reduced | dose-dependently reduced | dose-dependently reduced | 220 to 1220 |
| CCS(=O)(=O)N1CC(CC#N)(n2cc(-c3ncnc4[nH]ccc34)cn2)C1 [baricitinib] | decreased cell proliferation at higher doses | decreased cell proliferation at higher doses | – | – |
